Assay type in all cases: cell-based
For assay [1], the system named is dog MRGPRX2 (beagle & boxer). Put plainly: Calcium mobilization in BacMam-transduced U2OS cells. The procedure: (§1) Cell culture reagents were purchased from Thermo Fisher Scientific unless otherwise stated. The LAD2 human mast cell line was in-licensed from National Institutes of Health (NIH) and routinely cultured in StemPro™-34 SFM with nutrient supplement, 1× GlutaMax™, and recombinant human SCF (100 ng/mL). HEK293-MRGPRX2/Gα15 cells were cultured in DMEM containing 10% FBS. The parental U2OS cells were culture in DMEM/F-12 containing 10% FBS. BacMam virus containing human MRGPRX2 gene or animal orthologs [mouse Mrgprb2 (Gene ID: 243979), rat Mrgprb3 (Gene ID: 691194), dog MRGPRX2 (Gene ID: 102125889), cynomolgus monkey MRGPRX2 (Gene ID: 692078), and rhesus monkey MRGPRX2] were used to transduce U2OS cells for transient expression.
(§2) Supplemental Table 1: Compound A and Compound B are human MRGPRX2 selective antagonists. Antagonist and agonist activities of the two compounds were determined in calcium mobilization assays for human MRGPRX2 and its animal orthologs from various species. The activities were measured in […] (Molecular Devices) instrument using U2OS cells transduced with BacMam virus for transient expression of the relevant receptors. Data are presented as mean ± SEM when applicable.
(§3) Compound A and Compound B up to the highest concentration (100 µM) tested. In the antagonist […]
(§4) Compound A and B, respectively. […]
(§5) Taking together, […]

A further assay addresses T1, mouse MrgB2 (Mus musculus, UniProt Q3KNA1).
T1 construct: expressed in transfected cells; host or cells: U2OS transduced with BacMam virus
Described as above. The procedure:
as §1, §2, §3, §4, §5

A further assay concerns rat MrgB3. The description is as above. The procedure:
as §1, §2, §3, §4, §5

Another assay deals with 5-HT2B receptor (HTR2B) (Homo sapiens, UniProt P41595). In words: GPCR selectivity cellular assay. The note with it: Agonism; read-out: Agonist Activity (EC50). The procedure: (§6) tagonists, with little activity detected on other GPCRs. Antagonist and/or agonist activities of the two compounds were determined in cellular assays for 20 human G-protein coupled receptors (GPCR) beside MRGPRX2. Recombinant over-expression systems in mammalian cells were used for all assays listed in this table. […]
Chain of 5-HT2B receptor (HTR2B) (P41595 whole entry): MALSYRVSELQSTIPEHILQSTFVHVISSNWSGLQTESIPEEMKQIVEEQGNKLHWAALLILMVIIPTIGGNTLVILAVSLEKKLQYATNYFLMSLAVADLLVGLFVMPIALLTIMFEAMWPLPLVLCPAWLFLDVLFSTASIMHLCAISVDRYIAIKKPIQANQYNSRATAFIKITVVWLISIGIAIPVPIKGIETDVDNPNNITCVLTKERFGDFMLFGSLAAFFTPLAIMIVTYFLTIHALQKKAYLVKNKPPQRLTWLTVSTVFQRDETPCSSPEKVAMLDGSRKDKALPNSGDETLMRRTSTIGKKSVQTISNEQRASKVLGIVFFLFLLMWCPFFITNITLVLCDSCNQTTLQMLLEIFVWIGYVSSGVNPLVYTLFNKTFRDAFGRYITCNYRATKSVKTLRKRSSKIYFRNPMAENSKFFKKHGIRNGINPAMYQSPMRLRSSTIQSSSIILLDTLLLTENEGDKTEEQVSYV
(§7) reported as ‘>’ the highest compound concentration allowed in that assay.
(§8) GPCR Target Name Gene symbol Mode of Activity Compound-A Compound-B […]
(§9) Agonist Activity (EC50 ) or Antagonist Activity (IC50 ), nM […]

A further assay addresses T2, 5-HT2C receptor (HTR2C) (Homo sapiens, UniProt P28335).
T2 sequence (P28335 33-458): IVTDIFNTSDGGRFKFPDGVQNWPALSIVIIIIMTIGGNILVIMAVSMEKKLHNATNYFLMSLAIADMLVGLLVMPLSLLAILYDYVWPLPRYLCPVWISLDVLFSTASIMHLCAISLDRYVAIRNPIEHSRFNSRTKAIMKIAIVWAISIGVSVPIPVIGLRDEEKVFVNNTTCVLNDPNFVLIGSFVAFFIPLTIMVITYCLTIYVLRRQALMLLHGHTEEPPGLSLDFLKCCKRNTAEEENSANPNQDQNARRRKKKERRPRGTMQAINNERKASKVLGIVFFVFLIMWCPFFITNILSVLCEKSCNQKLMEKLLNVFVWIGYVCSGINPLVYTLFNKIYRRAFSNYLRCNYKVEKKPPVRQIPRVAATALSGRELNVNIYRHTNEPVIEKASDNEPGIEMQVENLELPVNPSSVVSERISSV
In words: GPCR selectivity cellular assay. The note with it: for EC50: Agonism, read-out: Agonist Activity (EC50); for IC50: Antagonism, read-out: Antagonist Activity (IC50). The method, then:
as §6, §7, §8, §9

In the next assay the target is T3, CB1 receptor (CNR1) (Homo sapiens, UniProt P21554).
T3 construct: expressed in transfected cells
T3 sequence (P21554 whole entry): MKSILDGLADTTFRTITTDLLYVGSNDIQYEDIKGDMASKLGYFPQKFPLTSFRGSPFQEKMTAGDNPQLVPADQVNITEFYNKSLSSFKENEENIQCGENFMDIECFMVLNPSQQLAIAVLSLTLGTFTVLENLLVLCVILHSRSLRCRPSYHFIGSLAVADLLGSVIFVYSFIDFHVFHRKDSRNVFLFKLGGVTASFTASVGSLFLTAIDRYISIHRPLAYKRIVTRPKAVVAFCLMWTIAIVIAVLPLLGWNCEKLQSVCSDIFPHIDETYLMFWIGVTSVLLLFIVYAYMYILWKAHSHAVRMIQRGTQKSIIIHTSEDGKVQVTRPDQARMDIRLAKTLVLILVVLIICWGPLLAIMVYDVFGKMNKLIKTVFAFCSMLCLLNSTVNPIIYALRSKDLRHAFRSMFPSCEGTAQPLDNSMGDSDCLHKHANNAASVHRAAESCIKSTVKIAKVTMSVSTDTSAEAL
In words: GPCR selectivity cellular assay. The procedure: as §6, §7, §8, §9

The target in another assay is T4, D1 receptor (DRD1) (Homo sapiens, UniProt P21728).
T4 construct: expressed in transfected cells
T4 sequence (P21728 whole entry): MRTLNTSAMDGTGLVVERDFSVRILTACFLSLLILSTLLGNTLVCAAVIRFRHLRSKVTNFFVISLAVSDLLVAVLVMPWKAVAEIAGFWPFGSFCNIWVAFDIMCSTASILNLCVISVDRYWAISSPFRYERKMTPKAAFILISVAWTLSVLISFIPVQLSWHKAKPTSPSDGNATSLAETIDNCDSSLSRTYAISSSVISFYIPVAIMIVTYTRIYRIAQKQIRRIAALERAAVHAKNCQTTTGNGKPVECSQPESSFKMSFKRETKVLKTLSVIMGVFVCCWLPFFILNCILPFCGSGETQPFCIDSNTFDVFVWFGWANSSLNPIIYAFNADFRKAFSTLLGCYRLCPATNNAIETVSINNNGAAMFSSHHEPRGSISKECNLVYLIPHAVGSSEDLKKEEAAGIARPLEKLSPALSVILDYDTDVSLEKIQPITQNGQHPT
Put plainly: GPCR selectivity cellular assay. The note with it: Antagonism; read-out: Antagonist Activity (IC50). The procedure: as §6, §7, §8, §9

A further assay addresses T5, H1 receptor (HRH1) (Homo sapiens, UniProt P35367).
T5 construct: expressed in transfected cells
In words: GPCR selectivity cellular assay. The note with it: Antagonism; read-out: Antagonist Activity (IC50). The procedure: as §6, §7, §8, §9

The target in the next assay is k-Receptor (OPRK1) (Homo sapiens, UniProt P41145). Put plainly: GPCR selectivity cellular assay. The procedure: as §6, §7, §8, §9
Chain of k-Receptor (OPRK1) (P41145 whole entry): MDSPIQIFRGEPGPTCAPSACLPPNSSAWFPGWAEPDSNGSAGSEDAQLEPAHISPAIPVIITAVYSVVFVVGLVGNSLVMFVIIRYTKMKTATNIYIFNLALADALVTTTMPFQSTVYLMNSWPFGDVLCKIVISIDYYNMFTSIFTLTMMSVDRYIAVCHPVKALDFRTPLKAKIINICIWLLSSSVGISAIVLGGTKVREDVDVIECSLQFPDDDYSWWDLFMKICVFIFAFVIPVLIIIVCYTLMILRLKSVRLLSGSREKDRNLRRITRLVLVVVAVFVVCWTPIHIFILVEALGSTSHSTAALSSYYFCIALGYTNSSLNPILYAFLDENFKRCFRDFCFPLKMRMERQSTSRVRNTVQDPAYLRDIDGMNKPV
A further assay addresses T6, MRGPRX1 (Homo sapiens, UniProt Q96LB2).
T6 construct: expressed in transfected cells
Put plainly: GPCR selectivity cellular assay. The note with it: for EC50: Agonism, read-out: Agonist Activity (EC50); for IC50: Antagonism, read-out: Antagonist Activity (IC50). The procedure:
Antagonist and/or agonist activities of the two compounds were determined in cellular assays for 20 human G-protein coupled receptors (GPCR) beside MRGPRX2. Recombinant over-expression systems in mammalian cells were used for all assays listed in this table. […]
reported as ‘>’ the highest compound concentration allowed in that assay. […]
Agonist Activity (EC50 ) or Antagonist Activity (IC50 ), nM

The target in assay [2] is T7, MRGPRX2 (Homo sapiens, UniProt Q96LB1).
T7 sequence (Q96LB1 1-330): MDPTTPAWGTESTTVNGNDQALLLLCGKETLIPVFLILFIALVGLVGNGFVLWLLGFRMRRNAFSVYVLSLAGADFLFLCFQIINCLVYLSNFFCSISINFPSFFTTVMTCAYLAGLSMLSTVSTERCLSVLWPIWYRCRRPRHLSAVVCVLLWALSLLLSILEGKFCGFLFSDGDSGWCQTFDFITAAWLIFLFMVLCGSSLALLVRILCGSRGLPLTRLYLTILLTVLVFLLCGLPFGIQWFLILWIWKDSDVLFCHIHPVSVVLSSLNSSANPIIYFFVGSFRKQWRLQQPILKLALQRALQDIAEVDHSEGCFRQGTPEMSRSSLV
Put plainly: Calcium mobilization (FLIPR TETRA) in BacMam-transduced U2OS cells. Also noted: expressed in transfected cells; host or cells: U2OS transduced with BacMam virus; Agonist activity: dose or concentration left out as unconfirmed. The note with it: for Agonist activity: up to the highest concentration tested. The procedure: as §1, §2, §3, §4

Assay [3] has as its target T7, MRGPRX2. Put plainly: LAD2 mast cell degranulation (β-hexosaminidase release), MRGPRX2 ligand-mediated. Also noted: human mast cells expressing endogenous MRGPRX2; endogenous in cells; […]. The note with it: for IC50: mean ± SEM; for EC50: agonist mode, no mast cell activator, up to 50 μM tested, read-out: Activation of LAD-2 Cells EC50; for Kb: read-out: pA2 (apparent antagonist affinity, Schild analysis) (converted); for Nature of antagonism: vs Substance P concentration response curves. The procedure: Two different in vitro human mast cell systems were studied: (a) a human mast cell line, LAD2, established from a patient with mast cell sarcoma; and (b) mast cells freshly isolated from human skin. MRGPRX2 antagonist IC50 values were determined in the LAD2 mast cell degranulation assay using approximately EC80 concentrations for five different MRGPRX2 activating ligands (see Supplementary Figure 1 ).

Setting [4] is: Mast Cell Activator: Compound 48/80 at approx. EC80, read-out: Inhibition of Ligand Mediated LAD-2 Cell Activation and Degranulation IC50.
[5] abbreviates: Agonism, read-out: Agonist Activity (EC50).

Read-outs that look alike come from different tables or passages of the source.

T6 sequence (Q96LB2 whole entry): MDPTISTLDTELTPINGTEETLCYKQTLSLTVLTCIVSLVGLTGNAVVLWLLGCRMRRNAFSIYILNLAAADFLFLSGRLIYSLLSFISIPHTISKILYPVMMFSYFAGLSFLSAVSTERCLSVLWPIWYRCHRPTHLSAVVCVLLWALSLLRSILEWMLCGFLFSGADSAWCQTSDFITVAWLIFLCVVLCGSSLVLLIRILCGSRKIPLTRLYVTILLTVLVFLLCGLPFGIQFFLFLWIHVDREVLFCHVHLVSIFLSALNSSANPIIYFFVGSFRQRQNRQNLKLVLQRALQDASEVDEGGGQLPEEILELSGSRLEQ
T5 sequence (P35367 whole entry): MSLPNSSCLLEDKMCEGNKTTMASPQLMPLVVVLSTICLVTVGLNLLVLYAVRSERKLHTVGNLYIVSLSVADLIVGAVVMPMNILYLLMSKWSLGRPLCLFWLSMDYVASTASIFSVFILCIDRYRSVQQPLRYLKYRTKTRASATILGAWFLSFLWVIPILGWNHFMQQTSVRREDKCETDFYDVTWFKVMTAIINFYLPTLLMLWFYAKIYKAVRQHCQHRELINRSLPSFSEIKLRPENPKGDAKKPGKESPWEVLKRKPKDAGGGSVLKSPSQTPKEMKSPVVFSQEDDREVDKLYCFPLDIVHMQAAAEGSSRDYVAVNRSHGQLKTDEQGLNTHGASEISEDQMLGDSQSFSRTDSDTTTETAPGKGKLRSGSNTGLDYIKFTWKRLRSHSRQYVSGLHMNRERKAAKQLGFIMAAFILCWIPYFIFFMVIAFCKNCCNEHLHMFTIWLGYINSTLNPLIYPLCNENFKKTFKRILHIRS
T1 sequence (Q3KNA1 whole entry): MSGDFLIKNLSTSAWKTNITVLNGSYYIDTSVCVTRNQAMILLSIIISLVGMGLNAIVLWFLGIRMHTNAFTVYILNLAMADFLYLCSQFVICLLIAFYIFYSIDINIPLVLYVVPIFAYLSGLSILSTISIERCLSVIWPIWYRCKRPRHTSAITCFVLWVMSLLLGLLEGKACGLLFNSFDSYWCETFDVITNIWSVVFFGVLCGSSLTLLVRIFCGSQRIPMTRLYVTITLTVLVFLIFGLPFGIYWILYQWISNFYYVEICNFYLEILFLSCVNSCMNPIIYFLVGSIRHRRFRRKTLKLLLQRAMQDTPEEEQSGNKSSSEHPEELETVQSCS

Turning to `CC1(C)C(C(=O)Nc2ccccn2)C1(C)C` [Compound A], the “Agonist and antagonist activity” value (in [1]; at mouse MrgB2; with rat MrgB3) was “No agonist nor antagonist activity” in each case. The EC50 at 5-HT2B receptor (HTR2B) was 27100 nM; on 5-HT2C receptor (HTR2C), greater than 100000 nM; at CB1 receptor (CNR1) it was greater than 25000 nM; on k-Receptor (OPRK1), greater than 100000 nM; at MRGPRX1 it was greater than 100000 nM; at MRGPRX2 [3], greater than 50000 nM. In addition, the IC50 at 5-HT2C receptor (HTR2C) was greater than 100000 nM; on D1 receptor (DRD1), greater than 100000 nM; at H1 receptor (HRH1) it was greater than 25000 nM; at MRGPRX1, greater than 100000 nM; at MRGPRX2 [2], 44.6 nM; on MRGPRX2 [3] (Inhibition of Ligand Mediated LAD-2 Cell Activation and Degranulation IC50, Mast Cell Activator: Cortistatin-14 at approx. EC80), 22.8 nM. The half-inhibitory concentration (IC50) against MRGPRX2 [3] (Inhibition of Ligand Mediated LAD-2 Cell Activation and Degranulation IC50, Mast Cell Activator: PACAP-27 at approx. EC80) was 61.2 ± 14.3 nM; at MRGPRX2 [3] (Inhibition of Ligand Mediated LAD-2 Cell Activation and Degranulation IC50, Mast Cell Activator: PAMP-12 at approx. EC80), 63.3 ± 6.2 nM; against MRGPRX2 [3] (Inhibition of Ligand Mediated LAD-2 Cell Activation and Degranulation IC50, Mast Cell Activator: Substance P (1 μM, approx. EC80)), 32.4 nM; at MRGPRX2 [3] (setting [4]), 232 ± 26 nM. Also, on MRGPRX2 [2], the Agonist activity result was “No agonist activity was detected”. Also, the Kb at MRGPRX2 [3] is 25.7 nM. In addition, on MRGPRX2 [3], the Nature of antagonism entry was “partly surmountable”.
For `C[C@@H](C(=O)Nc1cnc(Oc2ccc(F)cc2F)cn1)N1CCC(F)(F)[C@@H](c2cc[n+]([O-])cc2)C1` [Compound B], the “Agonist and antagonist activity” value (in assay [1]; on mouse MrgB2; with rat MrgB3) was “No agonist nor antagonist activity” in each case. The EC50 is greater than 100000 nM at 5-HT2B receptor (HTR2B); greater than 100000 nM on 5-HT2C receptor (HTR2C); greater than 25000 nM at CB1 receptor (CNR1) (setting [5]); greater than 100000 nM on k-Receptor (OPRK1) (setting [5]); greater than 100000 nM at MRGPRX1; greater than 50000 nM at MRGPRX2 [3]. In addition, the half-maximal inhibitory concentration (IC50) on 5-HT2C receptor (HTR2C) is greater than 50000 nM; on D1 receptor (DRD1), greater than 100000 nM; at H1 receptor (HRH1), greater than 25000 nM; at MRGPRX1, greater than 100000 nM; on MRGPRX2 [2] (Cortistatin 14 at approx. EC80, U2OS cells, read-out: Antagonist IC50 against Cortistatin 14), 3.6 nM; on MRGPRX2 [3] (setting [4]), 4 ± 0.3 nM. Besides, the IC50 amounted to 1 nM on MRGPRX2 [3] (Mast Cell Activator: Cortistatin-14 at approx. EC80, read-out: Inhibition of Ligand Mediated LAD-2 Cell Activation and Degranulation IC50); 1.8 ± 0.1 nM on MRGPRX2 [3] (Mast Cell Activator: PACAP-27 at approx. EC80, read-out: Inhibition of Ligand Mediated LAD-2 Cell Activation and Degranulation IC50); 2.6 ± 0.1 nM on MRGPRX2 [3] (Mast Cell Activator: PAMP-12 at approx. EC80, read-out: Inhibition of Ligand Mediated LAD-2 Cell Activation and Degranulation IC50); 1.8 ± 0.1 nM at MRGPRX2 [3] (Mast Cell Activator: Substance P (1 μM, approx. EC80), read-out: Inhibition of Ligand Mediated LAD-2 Cell Activation and Degranulation IC50). The Agonist activity entry at MRGPRX2 [2] is given as “No agonist activity was detected”. On MRGPRX2 [3] (7.6 nM antagonist), the “Effect on Substance P maximal response” value is “dampen SP’s maximal response”. For the same compound, the “Effect on degranulation response to highest Substance P concentration” value on MRGPRX2 [3] (20 nM antagonist, Substance P 50 μM) is reported as “abolish the degranulation response”. For the same compound, at MRGPRX2 [3], the Kb was 0.891 nM. The Nature of antagonism result on MRGPRX2 [3] is on record as “insurmountable”.

Source of the values: article PMC11527646, “Pharmacological blockade of the mast cell MRGPRX2 receptor supports investigation of its relevance in skin disorders” (Frontiers in Immunology, 2024).
